Earlier results, collected in patent publication US5578629A, “Benzamide-containing inhibitors of farnesyl-protein transferase” (Merck & Co., Inc., priority 1995, dated 1996).

Test system: farnesyl-protein transferase
Conditions: via inhibition of HMG-CoA reductase

| SMILES | Indirect inhibition of farnesyl-protein transferase in vivo |
| --- | --- |
| CC[C@H](C)C(=O)O[C@H]1CCC=C2C=C[C@H](C)[C@H](CC[C@@H]3C[C@@H](O)CC(=O)O3)[C@H]21 [compactin] | Indirect inhibition of farnesyl-protein transferase in vivo has been demonstrated |
| CC[C@H](C)C(=O)O[C@H]1C[C@@H](C)C=C2C=C[C@H](C)[C@H](CC[C@@H]3C[C@@H](O)CC(=O)O3)[C@H]21 [lovastatin] | Indirect inhibition of farnesyl-protein transferase in vivo has been demonstrated |
